Article PMC6154605, “Multi-Anti-Parasitic Activity of Arylidene Ketones and Thiazolidene Hydrazines against Trypanosoma cruzi and Leishmania spp” (Molecules : A Journal of Synthetic Chemistry and Natural …, 2017)
Where two headings read alike, the source gives them in different places. Marks after values point to notes of the source that are not given here.

Experiments:
[1] = tested on: T. cruzi epimastigotes, Tulahuen 2 strain (genotype TcVI); assay: In vitro anti-T. cruzi activity, growth inhibition of epimastigotes; type: cell-based, Trypanosoma cruzi; conditions: for IC50: Trypanosoma cruzi, TULAHUEN; for Trypanocidal activity on T. cruzi in words: molecular stripping, epimastigotes
Method: For the in vitro anti-T. cruzi activity, we used epimastigotes of the Tulahuen 2 strain (genotype TcVI) grown in an axenic milieu (BHI-Tryptose). Cells from a 5–7-day-old culture were inoculated in fresh culture milieu to give an initial concentration of 1.00 × 10^6 cells/mL. The absorbance at 600 nm of the cells in culture was measured every day. At Day 5, the milieu was inoculated with different quantities of the compounds from a stock solution in DMSO (DMSO concentration in the culture milieu never exceeded 0.4%). The control was made in the presence of 0.4% DMSO and in the absence of compounds. Each concentration of compound was evaluated in duplicate. At Day 5, the absorbance of the culture was measured and related to the control. […] Each antiproliferative experiment was done in duplicate, and each concentration was tested in triplicate.

[2] = tested on: L. infantum promastigotes; assay: Leishmanicidal activity on promastigotes, resazurin; type: cell-based, Leishmania infantum; conditions: for IC50: Leishmania infantum, 48 h, read-out: IC50 ± SD Promastigotes L. infantum; for SI NCTC/ L. infantum: ratio IC50 mammalian cell / IC50 parasite (promastigotes)
From the text: (§1) We initially selected compounds previously reported to have anti-T. cruzi activity from our chemical library to evaluate their leishmanicidal activity. […]. To evaluate their activity in Leishmania spp., we performed a phenotypic screening using the promastigote form of L. infantum (MHOM/FR/91/LEM-2259) and L. braziliensis ([…]) (Table 1A for the thiazolidenehydrazine derivate and Table 1B for the arylideneketones family).
(§2) A culture of L. braziliensis (MHOM/BR/75/M2904) and L. infantum (MHOM/FR/91/LEM2259V) was obtained from the Facultad de Farmacia (Universidad Complutense, Madrid, Spain). The maintenance of the strains, the form of cultivation and the isolation of the shape of the promastigote were performed following the procedures described by Roldos et al.. The promastigotes were grown at 22 °C in Schneider’s Drosophila medium supplemented with 20% FBS. The assay was performed using a modification of a previous method. Promastigotes (2 × 10^6 parasites/well) were cultivated in 96-well plastic plates. Compounds were dissolved in dimethylsulfoxide (DMSO). Different dilutions of the compounds with a final volume up to 200 µL were added. After 48 h at 26 °C, 20 µL of a 2 mM resazurin solution were added, and the oxidation-reduction was quantified at 570 and 600 nm. The solution of resazurin was prepared at 2.5 mM in phosphate buffered solution (PBS), pH 7.4, and filtered through 0.22-µm membranes prior to use. All tests were carried out in triplicate. Resazurin sodium salt was obtained from Sigma-Aldrich (St. Louis, MO, USA) and stored at 4 °C protected from light. The efficacy of each compound was estimated by calculating the IC50 values. Each antiproliferative experiment was done in duplicate, and each concentration was tested in triplicate.

[3] = tested on: L. braziliensis promastigotes; assay: as above; type: cell-based, Leishmania braziliensis; conditions: for IC50: Leishmania braziliensis, 48 h, read-out: IC50 ± SD Promastigotes L. braziliensis
From the text: as §1, §2

[4] = tested on: T. cruzi epimastigotes, Tulahuen 2 strain (genotype TcVI); conditions: cited from earlier work; for SI J774.1/ T. cruzi: ratio IC50 mammalian cell / IC50 parasite (epimastigotes); for IC50: read-out: IC50 ± SD Epimastigotes T. cruzi
[5] = tested on: NCTC929 fibroblasts; assay: Nonspecific cytotoxicity on fibroblasts, resazurin; type: cell-based; conditions: NCTC-929, 24 h; read-out: IC50 ± SD Fibroblast NCTC929
Method: To establish the selectivity of the compounds against the parasites, nonspecific cytotoxicity against mammalian cells, using J774.1 murine macrophages and fibroblast NCTC929, was studied for the most relevant derivatives. The selectivity indexes were calculated as the ratio between cytotoxicity for mammalian cells and the anti-parasitic activity (Table 2).
NCTC-Clone 929 were grown in minimal essential medium (Sigma) supplemented with 10% heat-inactivated FBS, penicillin G (100 U/mL) and streptomycin (100 µg/mL). Cell cultures were maintained at 37 °C in a humidified 5% CO2 atmosphere. The procedure for cell viability measurement was evaluated with resazurin by a colorimetric method. The cells were plated in 96 microtiter plates at 3.00 × 10^4 cells/well in 100 µL growth medium. The cells were grown overnight at 37 °C, 5% CO2. Thereafter, the medium was removed, and the compounds were added to 200 µL of medium for 24 h. After incubation, 20 µL of a 2 mM resazurin solution were added to each well. The plates were incubated for 3 h to allow optimal oxidation-reduction. The reduction of resazurin was determined by dual wavelength absorbance measurement at 490 and 595 nm. The background was subtracted. Each concentration was assayed three times. Medium and drug controls were used in each test as blanks.

[6] = tested on: J774.1 murine macrophages; conditions: J774.1; read-out: IC50 ± SD Murine Macrophages; cited from earlier work
[7] = tested on: zebrafish embryos; assay: Zebrafish embryo toxicity test (LD50)
Method: […] Only embryos that were clearly undamaged after 60 min of observation were kept and subsequently used. Dechorionated embryos were further manipulated using flame-rounded tip glass Pasteur pipettes. […] In all cases, the embryos were incubated in system water with 1% DMSO (negative control) and the compound at different doses between 8 and 96 hpf. The treatment solution was changed daily. […] At selected time points, namely 24, 48, 72 and 96 hpf, embryotoxicity (= mortality) and morphological characteristics of the embryos were evaluated using a Nikon SMZ800 stereomicroscope. The embryos were evaluated for the presence and morphological development (as appropriate) of somites, tail detachment, eyes, heart beat and blood circulation. All individuals were evaluated at all time points.

[8] = Tulahuen 2 strain, read-out: IC50 ± SD Epimastigotes T. cruzi
[9] = Figure 4, molecular stripping of HIT1, read-out: Effect of structural change on trypanocidal activity (emoticon code)

Row | Structure (SMILES) | IC50 [1, 8] [µM] | IC50 [2] [µM] | IC50 [3] [µM] | IC50 [1, 9] [µM] | further results
1 | O=C1/C(=C/C=C/c2cccs2)CC/C1=C\C=C\c1cccs1 [EA160] | – | 11 ± 3 | > 100 | – | SI NCTC/ L. infantum [2]: 446; SI J774.1/ T. cruzi [4]: 375 ^c; IC50 [4]: 0.04 ± 0.01 µM; IC50 [5]: 4909 ± 36 µM; IC50 [6]: 15 ± 1 µM
2 | C=CCn1c(C(=O)CN2CCN(Cc3ccccc3)CC2)cs/c1=N/N=C\C=C\c1ccco1 [GATk5, 1-((Z)-3-allyl-2-((E)-((E)-3-(furan-2-yl)allylidene)hydrazono)-2,3-dihydrothiazol-4-yl)-2-(4-benzylpiperazin-1-yl)ethanone] | > 25 | – | – | > 25 | –
3 | O=C(/C=C/C=C/c1cccs1)/C=C/C=C/c1cccs1 [EA141] | – | 19 ± 5 | 36 ± 3 | – | SI NCTC/ L. infantum [2]: 90; SI NCTC/ L. braziliensis ([3]; ratio IC50 mammalian cell / IC50 parasite (promastigotes)): 47; SI J774.1/ T. cruzi [4]: 1 ^c; IC50 [4]: 12.6 ± 1.4 µM; IC50 [5]: 1700 ± 40 µM; IC50 [6]: 10 ± 2 µM
4 | C=CCn1c(C(=O)CN2CCN(c3ccccc3)CC2)csc1=NN=CC=Cc1ccco1 [GATk1, (2E,2Z)-2-(2-((E)-3-(furan-2-yl)propeniliden)hydrazono)-(3-allyl-2,3-dihydrothiazol-4-yl)-2-(4-phenylpiperazin-1-yl)ethanone] | > 25 | – | – | > 25 | –
5 | O=C(/C=C/C=C/C=C/c1cccs1)/C=C/C=C/C=C/c1cccs1 [EA152] | > 25 | 30 ± 8 | > 100 | – | –
6 | O=C1/C(=C/c2ccco2)CCC/C1=C\c1ccco1 [EA154] | 7 ± 2 | > 25 | > 25 | – | –
7 | C=CCn1c(C(=O)CN2CCSCC2)cs/c1=N/N=C\C=C\c1ccco1 [GATk2, 1-((Z)-3-allyl-2-((E)-((E)-3-(furan-2-yl)allylidene)hydrazono)-2,3-dihydrothiazol-4-yl)-2-thiomorpholinoethanone] | 8 ± 1 | – | – | – | –
8 | O=C1/C(=C/C=C/c2ccccc2)CCC/C1=C\C=C\c1ccccc1 [EA143] | 14 ± 3 | > 25 | > 25 | – | –
9 | CC(=O)N1CCN(c2ccc(OCC3COC(Cn4ccnc4)(c4ccc(Cl)cc4Cl)O3)cc2)CC1 (centres unmarked) [Ketoconazole, reference compound] | – | – | – | – | LD50 without chorion ([7]; dechorionated zebrafish embryos, 72 h incubation): 12 ± 3 µM; LD50 with chorion ([7]; zebrafish embryos with chorion): > 25 µM

Now from value to compound, other results behind:

Row | IC50 [1, 8] [µM] | Structure (SMILES) | IC50 [2] [µM] | IC50 [3] [µM] | IC50 [1, 9] [µM] | further results
10 | 10 ± 2 | C=CCn1c(-c2ccc(Cl)cc2)cs\c1=N/N=C/C=C/C=C/c1ccco1 [GATA2] | – | – | – | –
11 | > 25 | C(=C\c1ccco1)/C=N/N1CCN(Cc2ccccc2)CC1 [GAT1912, (E)-4-benzyl-N-((E)-3-(furan-2-yl)allylidene)piperazin-1-amine] | > 100 | > 100 | > 25 | melting point: 145 to 147 °C
12 | 12 ± 2 | Cc1ccc(/C=C/C=N/N2CCN(CC=Cc3ccccc3)CC2)o1 [GAT0413, (E)-4-cinnamyl-N-((E)-3-(5-methylfuran-2-yl)allylidene)piperazin-1-amine] | > 25 | > 25 | 5 to 25 | Trypanocidal activity on T. cruzi in words [1]: the activity was restored
13 | 20 ± 2 | C=CCn1c(C(=O)NN2CCN(C/C=C/c3ccccc3)CC2)cs\c1=N/N=C/C=C/c1ccco1 [GAT1613] | – | – | – | Trypanocidal activity on T. cruzi in words [1]: the activity was lost
